Patent US7982047B2, “Derivatives of 1,3-diones having a herbicidal activity” (Isagro Ricerca S.r.l., priority 2003, dated 2011)

What was measured:
[1] = test system: Chenopodium album; experiment: Pre-emergence herbicidal activity; type: in vivo; details: 500 g/ha, evaluated fifteen days after the treatment, damage vs blank
Procedure: (§1) Determination of the Herbicidal Activity and Phyto-Toxicity in Pre-Emergence The herbicidal activity of the compounds of the invention in pre-emergence was evaluated according to the following operative procedures. The plant species of interest (weeds or crops) were sown in pots with an upper diameter of 10 cm, a height of 10 cm and containing sandy soil. 10 pots were used for each plant species. Water was added to each pot in such a quantity as to germinate the seeds. The pots were divided into two groups, each containing 5 pots for each weed or crop. After one day from the sowing, the first set of pots was treated with a hydro-acetonic dispersion containing acetone at 10% in volume, the product under evaluation at the desired concentration and Tween 20 at 0.5%. The second set was treated with a hydro-acetonic solution only, containing acetone at 10% in volume and Tween 20 at 0.5%, and was used as comparison (blank). All pots were kept under observation in a conditioned environment under the following conditions: • temperature: 24° C.; • relative humidity: 60%; • photoperiod: 16 hours; • light intensity: 10000 lux. The pots were uniformly watered in order to ensure a sufficient humidity degree for a good development of the plants. Fifteen days after the treatment, the herbicidal activity was evaluated on the basis of the following values, which refer to the damage percentage tested on the treated plants, with respect to the non-treated plants (blank): [table]

[2] = test system: Amaranthus retroflexus; experiment: Pre-emergence herbicidal activity; type: in vivo; details: 500 g/ha, evaluated fifteen days after the treatment, damage vs blank
Procedure: as §1

[3] = test system: Portulaca oleracea; experiment: Pre-emergence herbicidal activity; type: in vivo; details: 500 g/ha, evaluated fifteen days after the treatment, damage vs blank
Procedure: as §1

[4] = test system: Abutilon theofrasti; experiment: Pre-emergence herbicidal activity; type: in vivo; details: 500 g/ha, evaluated fifteen days after the treatment, damage vs blank
Procedure: as §1

[5] = test system: Stellaria media; experiment: Pre-emergence herbicidal activity; type: in vivo; details: 500 g/ha, evaluated fifteen days after the treatment, damage vs blank
Procedure: as §1

[6] = test system: Solanum nigrum; experiment: Pre-emergence herbicidal activity; type: in vivo; details: 500 g/ha, evaluated fifteen days after the treatment, damage vs blank
Procedure: as §1

[7] = test system: Chenopodium album; experiment: Post-emergence herbicidal activity; type: in vivo; details: 500 g/ha, evaluated fifteen days after the treatment, damage vs blank
Procedure: (§2) Determination of the Herbicidal Activity and Phyto-Toxicity in Post-emergence The herbicidal activity of the compounds of the invention in post-emergence was evaluated according to the following operative procedures. The plant species of interest (weeds or crops) were sown in pots with an upper diameter of 10 cm, a height of 10 cm and containing sandy soil. 10 pots were used for each plant species. Water was added to each pot in such a quantity as to germinate the seeds. The pots were divided into two groups, each containing 5 pots for each weed or crop. Fifteen days after sowing (ten, in the case of wheat), when the weeds and crops, according to the species, were 10-15 cm high, the first set of pots was treated with a hydro-acetonic dispersion containing acetone at 10% in volume, the product under evaluation at the desired concentration and Tween 20 at 0.5%. The second set was treated with a hydro-acetonic solution only, containing acetone at 10% in volume and Tween 20 at 0.5%, and was used as comparison (blank). All pots were kept under observation in a conditioned environment under the following conditions: • temperature: 24° C.; • relative humidity: 60%; • photo-period: 16 hours; • light intensity: 10000 lux. The pots were uniformly watered every other day so as to ensure a humidity degree sufficient for a good development of the plants. The herbicidal activity was evaluated fifteen days after the treatment, on the basis of the following values which refer to the percentage of damage tested on the treated plants with respect to the non-treated plants (blank): [table]

[8] = test system: Abutilon theofrasti; experiment: Post-emergence herbicidal activity; type: in vivo; details: 500 g/ha, evaluated fifteen days after the treatment, damage vs blank
Procedure: as §2

[9] = test system: Solanum nigrum; experiment: Post-emergence herbicidal activity; type: in vivo; details: 500 g/ha, evaluated fifteen days after the treatment, damage vs blank
Procedure: as §2

[10] = test system: Ipomea purpurea; experiment: Pre-emergence herbicidal activity; type: in vivo; details: 500 g/ha, evaluated fifteen days after the treatment, damage vs blank
Procedure: as §1

[11] = test system: Galium aparine; experiment: Post-emergence herbicidal activity; type: in vivo; details: 500 g/ha, evaluated fifteen days after the treatment, damage vs blank
Procedure: as §2

[12] = test system: Portulaca oleracea; experiment: Post-emergence herbicidal activity; type: in vivo; details: 500 g/ha, evaluated fifteen days after the treatment, damage vs blank
Procedure: as §2

[13] = test system: Stellaria media; experiment: Post-emergence herbicidal activity; type: in vivo; details: 500 g/ha, evaluated fifteen days after the treatment, damage vs blank
Procedure: as §2

[14] = test system: Galium aparine; experiment: Pre-emergence herbicidal activity; type: in vivo; details: 500 g/ha, evaluated fifteen days after the treatment, damage vs blank
Procedure: as §1

CS(=O)(=O)c1ccc(C(=O)C(C(=O)C(F)(F)F)c2ccccn2)c(Cl)c1 (stereo not shown) [Compound N-616, 1-[2-chloro-4-(methylsuiphonyl)phenyl]-2-(pyridin-2-yl)-4,4,4-trifluorobutane-1,3-dione]
189 °C: melting point

Cn1nnnc1C(C(=O)c1ccc(S(C)(=O)=O)cc1Cl)C(=O)C1CC1 (stereo not shown) [Compound N^o 7, 1-[2-chloro-4-(methylsulphonyl)phenyl]-3-cyclopropyl-2-(1-methyl-1H-tetrazol-5-yl)propane-1,3-dione]
5 (91% damage - death of the plant.): Pre-emergence herbicidal activity CA [1] | Pre-emergence herbicidal activity AR [2] | Pre-emergence herbicidal activity PO [3] | Pre-emergence herbicidal activity AT [4] | Pre-emergence herbicidal activity SM [5] | Pre-emergence herbicidal activity SN [6]

Cc1noc(C(C(=O)c2ccc(S(C)(=O)=O)cc2Cl)C(=O)C2CC2)n1 (stereo not shown) [Compound N^o 11, 1-[2-chloro-4-(methylsulphonyl)phenyl]-3-cyclopropyl-2-(3-methyl-1,2,4-oxadiazol-5-yl)propane-1,3-dione]
5 (91% damage - death of the plant.): Post-emergence herbicidal activity CA [7] | Post-emergence herbicidal activity AT [8] | Post-emergence herbicidal activity SN [9] | Pre-emergence herbicidal activity CA [1] | Pre-emergence herbicidal activity IP [10] | Pre-emergence herbicidal activity PO [3] | Pre-emergence herbicidal activity AT [4]

CS(=O)(=O)c1ccc(C(=O)C(C(=O)C2CC2)c2ccc([N+](=O)[O-])cc2[N+](=O)[O-])c(Cl)c1 (stereo not shown)
67 °C: melting point

Cn1nnc(C(C(=O)c2ccc(S(C)(=O)=O)cc2Cl)C(=O)C2CC2)n1 (stereo not shown) [Compound N^o 6, 1-[2-chloro-4-(methylsulphonyl)phenyl]-3-cyclopropyl-2-(2-methyl-2H-tetrazol-5-yl)propane-1,3-dione]
5 (91% damage - death of the plant.): Post-emergence herbicidal activity CA [7] | Post-emergence herbicidal activity GA [11] | Post-emergence herbicidal activity PO [12] | Post-emergence herbicidal activity AT [8] | Post-emergence herbicidal activity SM [13] | Post-emergence herbicidal activity SN [9] | Pre-emergence herbicidal activity CA [1] | Pre-emergence herbicidal activity GA [14] | Pre-emergence herbicidal activity IP [10] | Pre-emergence herbicidal activity AR [2] | Pre-emergence herbicidal activity PO [3] | Pre-emergence herbicidal activity AT [4] | Pre-emergence herbicidal activity SM [5] | Pre-emergence herbicidal activity SN [6]

CS(=O)(=O)c1ccc(C(=O)C(C(=O)C2CC2)n2cncn2)c(Cl)c1 (stereo not shown) [Compound No 460, 1-[2-chloro-4-(methylsulphonyl)phenyl]-3-cyclopropyl-2-(1,2,4-triazol-1-yl)propane-1,3-dione]
162 °C: melting point

CS(=O)(=O)c1ccc(C(=O)C(C(=O)C2CC2)c2nnc(C(F)(F)F)s2)c(Cl)c1 (stereo not shown) [Compound No 2918, 1-[2-chloro-4-(thylsulphonyl)phenyl]-3-cyclopropyl-2-(5-trifluoromethyl-1,3,4-thiadiazol-2-yl)propane-1,3-dione]
185 °C: melting point
